Laboratory results: the NIST ThermoML archive (doi:10.1016/j.fluid.2011.06.001)
± gives the expanded uncertainty stated by the source.

Assays:
[1] = Liquid, Closed cell (Static) method
[2] = excess molar enthalpy (molar enthalpy of mixing); xn = mol fraction of the nth substance listed; conditions: 298.15 K, 101 kPa, Liquid, Flow calorimetry

With CC(C)CCl [1-chloro-2-methylpropane] as the molecule, how does the “vapor or sublimation pressure” value ([1]; 288.15 K) read?
Its value is 13 ± 0.034 kPa.

What about the “vapor or sublimation pressure” value ([1]; 298.15 K) of the same molecule?
The value was 20.35 ± 0.048 kPa.

And the “vapor or sublimation pressure” value ([1]; 308.15 K)?
Its value is 30.45 ± 0.066 kPa.

With CC(C)CCl [1-chloro-2-methylpropane] + CC(C)OC(C)C as the molecule, how does the excess molar enthalpy ([2]; x1 = 0.0907) read?
Its excess molar enthalpy is -0.0302 ± 0.0011 kJ/mol.

And the excess molar enthalpy ([2]; x1 = 0.1815)?
The excess molar enthalpy was -0.0541 ± 0.0015 kJ/mol.

And the excess molar enthalpy ([2]; x1 = 0.2726)?
Its excess molar enthalpy is -0.0732 ± 0.0019 kJ/mol.

What about the excess molar enthalpy ([2]; x1 = 0.3634) of the same molecule?
Its excess molar enthalpy is -0.0863 ± 0.0022 kJ/mol.

What about the excess molar enthalpy ([2]; x1 = 0.4544) of the same molecule?
Its excess molar enthalpy is -0.0948 ± 0.0023 kJ/mol.

And the excess molar enthalpy ([2]; x1 = 0.5453)?
Its excess molar enthalpy is -0.0957 ± 0.0024 kJ/mol.

And the excess molar enthalpy ([2]; x1 = 0.6361)?
The excess molar enthalpy was -0.0915 ± 0.0023 kJ/mol.

And the excess molar enthalpy ([2]; x1 = 0.727)?
The excess molar enthalpy was -0.0791 ± 0.002 kJ/mol.

What about the excess molar enthalpy ([2]; x1 = 0.8179) of the same molecule?
The excess molar enthalpy was -0.0615 ± 0.0017 kJ/mol.

And the excess molar enthalpy ([2]; x1 = 0.909)?
Its excess molar enthalpy is -0.0344 ± 0.0012 kJ/mol.

Which “vapor or sublimation pressure” value ([1]; 288.15 K) does the source give for CCCCCl [1-chlorobutane] here?
The value was 8.4 ± 0.025 kPa.

What about the “vapor or sublimation pressure” value ([1]; 298.15 K) of the same molecule?
The value was 13.52 ± 0.034 kPa.

What about the “vapor or sublimation pressure” value ([1]; 308.15 K) of the same molecule?
Its value is 21.04 ± 0.048 kPa.

Which excess molar enthalpy ([2]; x1 = 0.0908) does the source give for CCCCCl [1-chlorobutane] + CC(C)OC(C)C here?
The excess molar enthalpy was -0.0286 ± 0.0011 kJ/mol.

And the excess molar enthalpy ([2]; x1 = 0.1817)?
The excess molar enthalpy was -0.0547 ± 0.0016 kJ/mol.

What about the excess molar enthalpy ([2]; x1 = 0.2726) of the same molecule?
Its excess molar enthalpy is -0.0732 ± 0.0019 kJ/mol.

What about the excess molar enthalpy ([2]; x1 = 0.3636) of the same molecule?
Its excess molar enthalpy is -0.0873 ± 0.0022 kJ/mol.

What about the excess molar enthalpy ([2]; x1 = 0.4545) of the same molecule?
The excess molar enthalpy was -0.0954 ± 0.0024 kJ/mol.

And the excess molar enthalpy ([2]; x1 = 0.5453)?
The excess molar enthalpy was -0.0954 ± 0.0024 kJ/mol.

What about the excess molar enthalpy ([2]; x1 = 0.6363) of the same molecule?
The excess molar enthalpy was -0.0903 ± 0.0023 kJ/mol.

And the excess molar enthalpy ([2]; x1 = 0.7273)?
Its excess molar enthalpy is -0.0785 ± 0.002 kJ/mol.

And the excess molar enthalpy ([2]; x1 = 0.818)?
Its excess molar enthalpy is -0.0587 ± 0.0016 kJ/mol.

What about the excess molar enthalpy ([2]; x1 = 0.909) of the same molecule?
Its excess molar enthalpy is -0.0324 ± 0.0011 kJ/mol.

What does the source list for CC(C)(C)Cl [2-chloro-2-methylpropane]?
vapor or sublimation pressure ([1]; 288.15 K): 26.42 ± 0.062 kPa; vapor or sublimation pressure ([1]; 298.15 K): 40.13 ± 0.087 kPa; vapor or sublimation pressure ([1]; 308.15 K): 59.52 ± 0.12 kPa

Which excess molar enthalpy ([2]; x1 = 0.1093) does the source give for CC(C)(C)Cl [2-chloro-2-methylpropane] + CC(C)OC(C)C here?
The excess molar enthalpy was 0.0045 ± 0.0008 kJ/mol.

What about the excess molar enthalpy ([2]; x1 = 0.2192) of the same molecule?
Its excess molar enthalpy is 0.007 ± 0.0008 kJ/mol.

What about the excess molar enthalpy ([2]; x1 = 0.3295) of the same molecule?
Its excess molar enthalpy is 0.008 ± 0.0008 kJ/mol.

What about the excess molar enthalpy ([2]; x1 = 0.4402) of the same molecule?
The excess molar enthalpy was 0.0082 ± 0.0008 kJ/mol.

And the excess molar enthalpy ([2]; x1 = 0.5512)?
The excess molar enthalpy was 0.0071 ± 0.0008 kJ/mol.

What about the excess molar enthalpy ([2]; x1 = 0.6628) of the same molecule?
Its excess molar enthalpy is 0.0053 ± 0.0008 kJ/mol.

What about the excess molar enthalpy ([2]; x1 = 0.7747) of the same molecule?
The excess molar enthalpy was 0.0035 ± 0.0008 kJ/mol.

And the excess molar enthalpy ([2]; x1 = 0.8872)?
Its excess molar enthalpy is 0.0013 ± 0.0008 kJ/mol.

Which results are given for CCC(C)Cl (stereo not drawn) [2-chlorobutane]?
vapor or sublimation pressure ([1]; 288.15 K): 13.36 ± 0.035 kPa; vapor or sublimation pressure ([1]; 298.15 K): 20.91 ± 0.049 kPa; vapor or sublimation pressure ([1]; 308.15 K): 31.55 ± 0.068 kPa

With CCC(C)Cl (stereo not drawn) [2-chlorobutane] + CC(C)OC(C)C as the molecule, how does the excess molar enthalpy ([2]; x1 = 0.0909) read?
Its excess molar enthalpy is -0.0154 ± 0.0009 kJ/mol.

What about the excess molar enthalpy ([2]; x1 = 0.1819) of the same molecule?
Its excess molar enthalpy is -0.03 ± 0.0011 kJ/mol.

And the excess molar enthalpy ([2]; x1 = 0.2726)?
Its excess molar enthalpy is -0.0434 ± 0.0013 kJ/mol.

And the excess molar enthalpy ([2]; x1 = 0.3636)?
Its excess molar enthalpy is -0.0523 ± 0.0015 kJ/mol.

And the excess molar enthalpy ([2]; x1 = 0.4546)?
Its excess molar enthalpy is -0.0575 ± 0.0016 kJ/mol.

And the excess molar enthalpy ([2]; x1 = 0.5454)?
Its excess molar enthalpy is -0.0601 ± 0.0017 kJ/mol.

What about the excess molar enthalpy ([2]; x1 = 0.6365) of the same molecule?
The excess molar enthalpy was -0.0599 ± 0.0017 kJ/mol.

What about the excess molar enthalpy ([2]; x1 = 0.7273) of the same molecule?
The excess molar enthalpy was -0.053 ± 0.0015 kJ/mol.

What about the excess molar enthalpy ([2]; x1 = 0.8182) of the same molecule?
The excess molar enthalpy was -0.0412 ± 0.0013 kJ/mol.

What about the excess molar enthalpy ([2]; x1 = 0.9092) of the same molecule?
Its excess molar enthalpy is -0.0251 ± 0.001 kJ/mol.

With CC(C)OC(C)C [diisopropyl ether] as the molecule, how does the “vapor or sublimation pressure” value ([1]; 288.15 K) read?
The value was 12.65 ± 0.034 kPa.

What about the “vapor or sublimation pressure” value ([1]; 298.15 K) of the same molecule?
Its value is 20 ± 0.047 kPa.

What about the “vapor or sublimation pressure” value ([1]; 308.15 K) of the same molecule?
Its value is 30.46 ± 0.066 kPa.
